This note sets out measurements from US10562912B2 (C&C Research Laboratories, priority 2013, dated 2020).

Holding throughout (type): cell-based
One assay has as its target T1, STAT3 (Homo sapiens, UniProt P40763).
T1 construct: plasmid pSTAT3-TA-luc), which contains a stably operating STAT3 promoter; endogenous in cells
Nature of the assay: STAT3 reporter gene assay (luciferase), LNCaP stable cell line (pSTAT3-TA-luc), IL-6 stimulation. The method in brief:
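LNCaP cells stably carrying pSTAT3-TA-luc, in RPMI1640 with 3% DCC-FBS, were treated with compound and then stimulated with 10 ng/mL IL-6 for 24–48 h at 37 °C. Luciferase activity was measured in lysates. A parallel plate measured viability by CellTiter-Glo, with stimulated 0.1% DMSO wells as the positive control.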
A general note: Reporter assays use an easily measured gene product as a stand-in for the process of interest.

The subject of another assay is MDA-MB-231. Nature of the assay: Cell growth inhibition assay, breast cancer cell line MDA-MB-231. As to conditions: Homo sapiens; MDA-MB-231 breast cancer cell line, 5,000 cells/well. Here is the method: The inhibitory effects of the compounds of the present invention against the growth of cancer cells were evaluated as shown below. The cancer cell lines including stomach cancer cell line (AGS), breast cancer cell lines (MDA-MB-231, MDA-MB-468, and BT-549), prostate cancer cell lines (LNCaP and DU-145), colon cancer cell line (HCT116), ovarian cancer cell line (SW626), liver cancer cell line (Hep3B), kidney cancer cell line (ACHN), lung cancer cell line (NCI-H23) and blood cancer cell lines (HEL92.1.7 and U266) were cultured under the protocol provided by each supplier. A medium supplemented with 10 ng/mL of IL-6 was used for LNCaP, a prostate cancer cell line, when treated with a drug. Each type of cells to be used in experiments were sub-cultured in a 96-well plate by counting the exact number of cells using Tali™ Image-based Cytometer (Life Technologies). In a 96-well plate, AGS, HCT116, and DU-145 were employed with 3,000 cells/well; NCI-H23, SW626, Hep3B, ACHN, BT-549, MDA-MB-231, HEL92.1.7, and U266 were employed with 5,000 cells/well; and LNCaP and MDA-MB-468 were employed with 10,000 cells/well. The cells were treated with the compounds listed in Examples which were diluted in various concentrations. Upon completion of the compounds treatment, AGS, HCT116, SW626, DU145, NCI-H23, Hep3B, ACHN, BT-549, LNCaP, HEL92.1.7, and U266 cells were cultured at 37° C. under 5% CO2 for from 72 to 96 hours, and MDA-MB-231 and MDA-MB-468 cells were cultured at 37° C. in air for from 72 to 96 hours. Subsequently, the cells were observed under microscope and drug precipitation and particular findings were investigated and recorded. And then, the 96-well plate was placed at room temperature for 30 minutes, added with 20 μL/well of CellTiter-Glo solution (Cat No. G7573, Promega) and shaken for 10 minutes, followed by being subjected to the measurement using PHERAstar™ microplate reader (BMG LABTECH) according to the supplier's general luminometer protocol. Wells where only culture liquid added without cell plating were used as a negative control, whereas wells where culture liquid containing 0.1% DMSO instead of the compounds listed in Examples were used as a positive control.

A further assay has as its system LNCaP. Description: Cell growth inhibition assay, prostate cancer cell line LNCaP (medium with 10 ng/mL IL-6). As to conditions: Homo sapiens, medium supplemented with 10 ng/mL of IL-6, 10,000 cells/well.

Where only a bound is given, the exact number is not on record here.

T1 sequence (P40763 whole entry): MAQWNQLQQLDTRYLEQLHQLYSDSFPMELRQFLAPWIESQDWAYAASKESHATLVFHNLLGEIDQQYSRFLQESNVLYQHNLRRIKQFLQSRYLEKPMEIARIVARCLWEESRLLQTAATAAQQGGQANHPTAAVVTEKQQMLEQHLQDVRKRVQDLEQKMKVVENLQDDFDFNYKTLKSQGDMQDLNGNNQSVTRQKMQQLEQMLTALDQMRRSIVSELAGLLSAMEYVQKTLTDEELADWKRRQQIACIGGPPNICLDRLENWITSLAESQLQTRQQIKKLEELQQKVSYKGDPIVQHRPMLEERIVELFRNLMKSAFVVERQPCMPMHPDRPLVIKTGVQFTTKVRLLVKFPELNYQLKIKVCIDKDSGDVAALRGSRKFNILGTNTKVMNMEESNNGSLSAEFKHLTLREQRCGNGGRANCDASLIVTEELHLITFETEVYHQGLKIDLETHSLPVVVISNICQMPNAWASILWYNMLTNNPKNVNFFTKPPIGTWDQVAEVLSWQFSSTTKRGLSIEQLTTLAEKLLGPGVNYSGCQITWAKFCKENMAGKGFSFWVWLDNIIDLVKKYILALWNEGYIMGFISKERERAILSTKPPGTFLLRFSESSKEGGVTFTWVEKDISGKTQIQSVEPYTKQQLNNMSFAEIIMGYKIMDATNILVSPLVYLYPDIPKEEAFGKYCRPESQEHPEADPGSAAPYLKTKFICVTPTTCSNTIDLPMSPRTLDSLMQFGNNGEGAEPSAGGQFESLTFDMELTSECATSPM

Regarding `CC(C)(c1ccccc1)c1cccc(NC(=O)c2cc3ccc(NS(C)(=O)=O)cc3[nH]2)c1` [Example 2, 6-(methylsulfonamido)-N-(3-(2-phenylpropan-2-yl)phenyl)-1H-indole-2-carboxamide], the figures for the half-inhibitory concentration (IC50) against STAT3, in the assay on MDA-MB-231 and in the assay on LNCaP were 0.2 µM, 0.14 µM and 5.3 µM, respectively.

Consider `COc1cc2cc(C(=O)Nc3cccc(C(C)(C)c4ccc(F)cc4)c3)[nH]c2cc1NS(C)(=O)=O` [Example 3, N-(3-(2-(4-fluorophenyl)propan-2-yl)phenyl)-5-methoxy-6-(methylsulfonamido)-1H-indole-2-carboxamide], for which the half-inhibitory concentration (IC50) (commonly the midpoint of a concentration-inhibition curve) came to 0.22 µM against STAT3, 0.09 µM in the assay on MDA-MB-231 and 1.1 µM in the assay with LNCaP.

As to `COc1cc(NC(=O)c2cc3ccc(NS(C)(=O)=O)cc3[nH]2)cc(C(C)(C)c2cccc(OC(F)(F)F)c2)c1` [Example 4, N-(3-methoxy-5-(2-(3-(trifluoromethoxy)phenyl)propan-2-yl)phenyl)-6-(methylsulfonamido)-1H-indole-2-carboxamide], the half-maximal inhibitory concentration (IC50) against STAT3 was 0.34 µM; in the assay on MDA-MB-231 it was 0.052 µM; in the assay with LNCaP, 0.82 µM.

In the case of `CNS(=O)(=O)Nc1ccc2cc(C(=O)Nc3cccc(C(C)(C)c4ccc(F)cc4)c3)[nH]c2c1` [Example 5, N-(3-(2-(4-fluorophenyl)propan-2-yl)phenyl)-6-((N-methylsulfamoyl)amino)-1H-indole-2-carboxamide], the half-inhibitory concentration (IC50) at STAT3 stood at 1.2 µM; in the assay with MDA-MB-231, 1.2 µM; in the assay with LNCaP, 4.7 µM.

`CC(C)(c1ccc(F)cc1)c1cccc(NC(=O)c2cc3ccc(S(C)(=O)=O)cc3[nH]2)c1` [Example 6, N-(3-(2-(4-fluorophenyl)propan-2-yl)phenyl)-6-(methylsulfonyl)-1H-indole-2-carboxamide]: the 50% inhibitory concentration (IC50) against STAT3, in the assay on MDA-MB-231 and with LNCaP was over 10 µM in each case.

`CC(C)(c1cccc(NC(=O)c2cc3ccc(NS(C)(=O)=O)cc3[nH]2)c1)c1ccccc1F` [Example 7, N-(3-(2-(2-fluorophenyl)propan-2-yl)phenyl)-6-(methylsulfonamido)-1H-indole-2-carboxamide]: the 50% inhibitory concentration (IC50) on STAT3 stood at 0.31 µM; in the assay on MDA-MB-231, 0.35 µM; in the assay with LNCaP, 2.4 µM.

Turning to `CC(C)(c1cccc(NC(=O)c2cc3ccc(NS(C)(=O)=O)cc3[nH]2)c1)c1cccc(OC(F)(F)F)c1` [Example 8, 6-(methylsulfonamido)-N-(3-(2-(3-(trifluoromethoxy)phenyl)propan-2-yl)phenyl)-1H-indole-2-carboxamide], the IC50 at STAT3 was determined as 0.12 µM; with MDA-MB-231 it was 0.018 µM; with LNCaP, 0.87 µM.

For `COc1cc(OC(F)(F)F)cc(C(C)c2cccc(NC(=O)c3cc4ccc(NS(C)(=O)=O)cc4[nH]3)c2)c1` (stereo not drawn) [Example 10, N-(3-(1-(3-methoxy-5-(trifluoromethoxy)phenyl)ethyl)phenyl)-6-(methylsulfonamido)-1H-indole-2-carboxamide], the results for the IC50 on STAT3, in the assay with MDA-MB-231 and in the assay on LNCaP were 0.43 µM, 0.18 µM and 1.7 µM, respectively.

Consider `CC(C)(c1cccc(NC(=O)c2cc3ccc(NS(C)(=O)=O)cc3[nH]2)c1)c1ccc(F)cc1F` [Example 11, N-(3-(2-(2,4-difluorophenyl)propan-2-yl)phenyl)-6-(methylsulfonamido)-1H-indole-2-carboxamide], for which the IC50 on STAT3 was found to be 0.2 µM; in the assay with MDA-MB-231, 0.06 µM; in the assay on LNCaP, 1.8 µM.

As for `COc1cccc(C(C)(C)c2cccc(NC(=O)c3cc4ccc(NS(C)(=O)=O)cc4[nH]3)c2)c1` [Example 12, N-(3-(2-(3-methoxyphenyl)propan-2-yl)phenyl)-6-(methylsulfonamido)-1H-indole-2-carboxamide], the values for the half-inhibitory concentration (IC50) against STAT3, in the assay on MDA-MB-231 and with LNCaP were 0.26 µM, 0.034 µM and 1.4 µM, respectively.

Turning to `COc1cc(NC(=O)c2cc3ccc(NS(C)(=O)=O)cc3[nH]2)cc(C(C)(C)c2cc(OC)cc(OC(F)(F)F)c2)c1` [Example 13, N-(3-methoxy-5-(2-(3-methoxy-5-(trifluoromethoxy)phenyl)propan-2-yl)phenyl)-6-(methylsulfonamido)-1H-indole-2-carboxamide], the IC50 against STAT3 came out at 0.22 µM; with MDA-MB-231, 0.03 µM; with LNCaP it was 0.48 µM.

Consider `CC(C)(c1ccc(F)cc1)c1cc(Br)cc(NC(=O)c2cc3ccc(NS(C)(=O)=O)cc3[nH]2)c1` [Example 14, N-(3-bromo-5-(2-(4-fluorophenyl)propan-2-yl)phenyl)-6-(methylsulfonamido)-1H-indole-2-carboxamide], for which the values for the IC50 at STAT3, with MDA-MB-231 and with LNCaP were 0.13 µM, 0.062 µM and 0.55 µM, respectively.

For `CC(C)(c1ccc(F)cc1)c1cc(NC(=O)c2cc3ccc(NS(C)(=O)=O)cc3[nH]2)cc(OC(F)F)c1` [Example 17, N-(3-(difluoromethoxy)-5-(2-(4-fluorophenyl)propan-2-yl)phenyl)-6-(methylsulfonamido)-1H-indole-2-carboxamide], the 50% inhibitory concentration (IC50) against STAT3 is 0.14 µM; in the assay with MDA-MB-231, 0.19 µM; in the assay with LNCaP it was 0.92 µM.

`CC(C)(c1cc(Br)cc(NC(=O)c2cc3ccc(NS(C)(=O)=O)cc3[nH]2)c1)c1cccc(OCC(N)=O)c1` [Example 18, N-(3-(2-(3-(2-amino-2-oxoethoxy)phenyl)propan-2-yl)-5-bromophenyl)-6-(methylsulfonamido)-1H-indole-2-carboxamide]: the half-inhibitory concentration (IC50) against STAT3 stood at 5.4 µM; in the assay with MDA-MB-231 it was 8.7 µM; in the assay with LNCaP it was 9.6 µM.

Regarding `CC(C)(c1cc(Br)cc(NC(=O)c2cc3ccc(NS(C)(=O)=O)cc3[nH]2)c1)c1cccc(OC(F)F)c1` [Example 20, N-(3-bromo-5-(2-(3-(difluoromethoxy)phenyl)propan-2-yl)phenyl)-6-(methylsulfonamido)-1H-indole-2-carboxamide], the IC50 on STAT3 was determined as 0.29 µM; in the assay with MDA-MB-231, 0.15 µM; with LNCaP, 1.1 µM.

Consider `CC(C)(c1cc(Br)cc(NC(=O)c2cc3ccc(NS(C)(=O)=O)cc3[nH]2)c1)c1cc(OC(F)(F)F)ccc1F` [Example 23, N-(3-bromo-5-(2-(2-fluoro-5-(trifluoromethoxy)phenyl)propan-2-yl)phenyl)-6-(methylsulfonamido)-1H-indole-2-carboxamide], for which the concentration for half-maximal inhibition (IC50) against STAT3 was 0.045 µM; in the assay on MDA-MB-231, 0.028 µM; in the assay with LNCaP, 0.17 µM.

With `CC(C)(c1ccc(F)cc1)c1cccc(NC(=O)c2cc3cc(OC(F)(F)F)ccc3[nH]2)c1` [Example 25, N-(3-(2-(4-fluorophenyl)propan-2-yl)phenyl)-5-(trifluoromethoxy)-1H-indole-2-carboxamide], the IC50 against STAT3 amounted to 3.3 µM; with MDA-MB-231, 3.2 µM; in the assay on LNCaP it was 4.2 µM.

`CC(C)(c1ccc(F)cc1)c1cccc(NC(=O)c2cc3cc(NS(C)(=O)=O)ccc3s2)c1` [Example 26, N-(3-(2-(4-fluorophenyl)propan-2-yl)phenyl)-5-(methylsulfonamido)benzo[b]thiophene-2-carboxamide]: the results for the 50% inhibitory concentration (IC50) at STAT3, in the assay on MDA-MB-231 and with LNCaP were 0.059 µM, 0.008 µM and 0.36 µM, respectively.

As to `CC(C)(c1cccc(NC(=O)c2cc3cc(NS(C)(=O)=O)ccc3s2)c1)c1ccc(F)cc1F` [Example 27, N-(3-(2-(2,4-difluorophenyl)propan-2-yl)phenyl)-5-(methylsulfonamido)benzo[b]thiophene-2-carboxamide], the figures for the IC50 at STAT3, in the assay with MDA-MB-231 and with LNCaP were 0.08 µM, 0.033 µM and 0.67 µM, respectively.

`CC(C)(c1ccc(F)cc1)c1cccc(NC(=O)c2cc3cc(NS(C)(=O)=O)ccc3o2)c1` [Example 28, N-(3-(2-(4-fluorophenyl)propan-2-yl)phenyl)-5-(methylsulfonamido)benzofuran-2-carboxamide]: the concentration for half-maximal inhibition (IC50) is 0.61 µM on STAT3, 1 µM with MDA-MB-231 and 4.7 µM in the assay with LNCaP.

Regarding `CC(C)(c1cccc(NC(=O)c2cc3cc(NS(C)(=O)=O)ccc3o2)c1)c1ccc(F)cc1F` [Example 29, N-(3-(2-(2,4-difluorophenyl)propan-2-yl)phenyl)-5-(methylsulfonamido)benzofuran-2-carboxamide], the IC50 at STAT3 stood at 0.53 µM; in the assay on MDA-MB-231, 0.47 µM; with LNCaP, 3.8 µM.
